Data from ChEMBL document CHEMBL1130915, “Kampanols: novel Ras farnesyl-protein transferase inhibitors from Stachybotrys kampalensis” (Bioorg Med Chem Lett, 1998).

What was measured:
[1] = molecular target: Protein farnesyltransferase (Homo sapiens, UniProt P49354+P49356); assay: Inhibition of human recombinant farnesyltransferase; type: protein-complex assay
[2] = Inhibition of Geranylgeranyl transferase type I

IC50 [1] [µM] | IC50 [2] [µM] | Compound
13 | > 100 | CC(=O)O[C@H]1CC[C@]2(C)[C@H]3Cc4c(O)cc5c(c4O[C@@]3(C)CC[C@H]2C1(C)C)COC5=O [KAMPANOL A]
560 | > 100 | CC(=O)O[C@H]1CC[C@]2(C)[C@H]3Cc4c(O)cc(C=O)c(C=O)c4O[C@@]3(C)CC[C@H]2C1(C)C
7 | > 100 | COC1OC(OC)c2c1cc(O)c1c2O[C@@]2(C)CC[C@H]3C(C)(C)[C@@H](OC(C)=O)CC[C@]3(C)[C@H]2C1 (stereo partly drawn)
460 | > 100 | CC(=O)O[C@H]1CC[C@]2(C)[C@H]3Cc4c(O)cc(CO)c(CO)c4O[C@@]3(C)CC[C@H]2C1(C)C
